Here are results for 21 compounds from PubChem BioAssay AID488801 (NMMLSC, 2010).

The structures appear in SMILES notation. The source made the active and inactive calls.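 How the source made its calls: active means EC50 at or below 33 microM; inactive means the rest.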

Sequence of Ammonium transporter MEP2 (Saccharomyces cerevisiae (strain ATCC 204508 / S288c)) (P41948 whole entry, looked up): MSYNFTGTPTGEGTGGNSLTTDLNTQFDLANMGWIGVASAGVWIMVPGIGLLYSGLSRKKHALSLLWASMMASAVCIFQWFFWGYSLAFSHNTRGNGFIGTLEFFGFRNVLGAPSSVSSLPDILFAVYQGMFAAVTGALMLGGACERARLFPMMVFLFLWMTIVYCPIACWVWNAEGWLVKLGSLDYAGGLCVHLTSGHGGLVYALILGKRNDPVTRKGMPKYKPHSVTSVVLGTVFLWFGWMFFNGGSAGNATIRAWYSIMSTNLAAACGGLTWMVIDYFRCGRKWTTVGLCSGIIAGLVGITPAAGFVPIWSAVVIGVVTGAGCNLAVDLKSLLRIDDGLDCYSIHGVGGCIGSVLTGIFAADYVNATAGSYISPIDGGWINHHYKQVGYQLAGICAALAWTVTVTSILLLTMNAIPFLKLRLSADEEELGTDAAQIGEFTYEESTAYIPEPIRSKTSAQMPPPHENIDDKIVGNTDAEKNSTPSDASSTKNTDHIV

The experiment concerns the target Ammonium transporter MEP2 (Saccharomyces cerevisiae (strain ATCC 204508 / S288c)) (UniProt P41948). Put plainly: MEP2-GFP expression modulation in yeast, dose response, flow cytometry, KU SAR set, S. cerevisiae (AID 488801). To be noted: flow cytometry MCF, 3 h. Background: A flow cytometer gives signals particle by particle.
With `Cc1cc(C(=O)Nc2nc(-c3ccccn3)cs2)ccc1[N+](=O)[O-]`, the EC50 (commonly the midpoint of the concentration-response curve) is “inactive”. The value for `CSC1=NS(=O)(=O)c2c(C)nn(C)c2S1` was “inactive”; that for `O=C(Nc1nc(-c2ccccn2)cs1)c1cc2ccccc2o1` was “inactive”. The result for `C/C(=N\NC(=O)c1ccc(C(C)(C)C)cc1)c1ccccn1` reads “inactive”; that for `O=C(Oc1c(Cl)cc(Cl)c2cccnc12)c1cccc([N+](=O)[O-])c1`, “inactive”.

Take `CCN(CC)C(=O)Oc1ccnc2cc(Cl)ccc12`: the EC50 entry was “inactive”. The value for `CNc1nc(N)c([N+](=O)[O-])c(NCC2CCCO2)n1` (stereo unspecified) was “inactive”. The value for `O=C(Nc1nc(-c2ccccn2)cs1)C1COc2ccccc2O1` (stereo unspecified) was “inactive”. The value for `CN1CCN(C(c2ccc(C(F)(F)F)cc2)c2ccc3cccnc3c2O)CC1` (stereo unspecified) was “inactive”. Turning to `Nc1cc(Nc2cccc(F)c2)nc(NCc2ccccc2)n1`, the EC50 result is “inactive”. The value for `Cc1ccc(C(c2cc(Cl)c3cccnc3c2O)N2CCN(C)CC2)cc1` (stereo unspecified) was “inactive”. The value for `Cc1ccc(/C=C2/C(=O)ON=C2c2ccccc2)o1` was “inactive”. The value for `O=C(Oc1c(Cl)cc(Cl)c2cccnc12)c1ccco1` was “inactive”. With `CNc1nc(N)c([N+](=O)[O-])c(Nc2cccc(Cl)c2)n1`, the EC50 is 2.72 µM. The result for `O=C(OCC(=O)N1CCN(C(=O)c2ccco2)CC1)c1cc(-c2cccc(Br)c2)nc2ccccc12` reads “inactive”; that for `Cc1ccc(S(=O)(=O)c2ncccc2[N+](=O)[O-])cc1`, “inactive”.

Take `COc1ccc([N+](=O)[O-])c(S(=O)(=O)c2ccccc2)n1`: the EC50 entry was “inactive”. The result for `CNc1nc(N)c([N+](=O)[O-])c(Nc2cccc(F)c2)n1` reads 15.8 µM; that for `C/C(=N\NC(=O)c1cccc(Br)c1)c1ccccn1`, “inactive”. The result for `Nc1cc(Oc2cccc(Cl)c2)nc(NCc2ccccc2)n1` reads “inactive”; that for `O=C(Oc1ccnc2cc(Cl)ccc12)N1CCCCCC1`, 3.97 µM.
